One test has as its target Caspase-7 (Homo sapiens, UniProt P55210). In words: activation of caspase-7 zymogen – biochemical, absorbance, counter-screen for procaspase-3 activator project, dose response (AID 489013). On the technique in general: A counterscreen serves to expose hits that act by an unwanted route or on another target.
In another test the target is T1, Caspase-3 (Homo sapiens, UniProt P42574).
T1 sequence (P42574 whole entry): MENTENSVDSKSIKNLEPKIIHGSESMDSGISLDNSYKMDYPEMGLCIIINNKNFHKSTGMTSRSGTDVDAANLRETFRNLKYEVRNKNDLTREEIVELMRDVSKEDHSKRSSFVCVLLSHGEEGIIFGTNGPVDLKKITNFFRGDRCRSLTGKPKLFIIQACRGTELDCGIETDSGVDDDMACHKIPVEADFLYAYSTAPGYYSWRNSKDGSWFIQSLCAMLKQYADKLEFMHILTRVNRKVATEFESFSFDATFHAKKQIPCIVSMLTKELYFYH
Kind of test: activation of caspase-3 zymogen – biochemical, absorbance, dose response (AID 489014).

The next test relates to INS1. Kind of test: INS-1E survival protection against cytokine death – cell-based, luminescence, retest, dose response (AID 449756).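 Further: cell death triggered by IL-1 beta plus TNF-alpha plus IFN-gamma mixture; protective hits raise ATP signal compared with cytokine alone wells.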 Format: functional. To be noted: Rattus norvegicus.
Test [1] is described as follows: viability of uninfected HEp-2 cells – cell-based, HTS, cytotoxicity control for RSV inhibitor project, dose response (AID 2410). Format: functional. The settings on record: human respiratory syncytial virus.
Test [2] can be described thus: viability of HCT116 lacking mutant beta-catenin – cell-based, human colon tumor, dose response (AID 1045).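 Further: HCT116 colon tumor cells with beta catenin knocked out; cells exposed to compound for 60 hours.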 Format: functional.
Test [3] addresses T2, Probable nicotinate-nucleotide adenylyltransferase (Staphylococcus aureus (strain N315), UniProt P65502). Format: functional, Staphylococcus aureus subsp. aureus N315.
The target of test [4] is T2, Probable nicotinate-nucleotide adenylyltransferase. Format: functional, Staphylococcus aureus subsp. aureus N315. The settings on record: read-out: IC50_Mean.
A short description of test [5]: viability of PTEN-deleted HCT116 cells – cell-based, HCT116 PTEN knockout, dose response (AID 1047).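 Further: HCT116 colon tumor cells with PTEN knocked out; cells exposed to compound for 60 hours before readout; potency for loss of cell viability measured by luminescence.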 Format: functional.
A further test has as its target T3, Protein RecA (Mycobacterium tuberculosis, UniProt P9WHJ3).
T3 sequence (P9WHJ3 whole entry): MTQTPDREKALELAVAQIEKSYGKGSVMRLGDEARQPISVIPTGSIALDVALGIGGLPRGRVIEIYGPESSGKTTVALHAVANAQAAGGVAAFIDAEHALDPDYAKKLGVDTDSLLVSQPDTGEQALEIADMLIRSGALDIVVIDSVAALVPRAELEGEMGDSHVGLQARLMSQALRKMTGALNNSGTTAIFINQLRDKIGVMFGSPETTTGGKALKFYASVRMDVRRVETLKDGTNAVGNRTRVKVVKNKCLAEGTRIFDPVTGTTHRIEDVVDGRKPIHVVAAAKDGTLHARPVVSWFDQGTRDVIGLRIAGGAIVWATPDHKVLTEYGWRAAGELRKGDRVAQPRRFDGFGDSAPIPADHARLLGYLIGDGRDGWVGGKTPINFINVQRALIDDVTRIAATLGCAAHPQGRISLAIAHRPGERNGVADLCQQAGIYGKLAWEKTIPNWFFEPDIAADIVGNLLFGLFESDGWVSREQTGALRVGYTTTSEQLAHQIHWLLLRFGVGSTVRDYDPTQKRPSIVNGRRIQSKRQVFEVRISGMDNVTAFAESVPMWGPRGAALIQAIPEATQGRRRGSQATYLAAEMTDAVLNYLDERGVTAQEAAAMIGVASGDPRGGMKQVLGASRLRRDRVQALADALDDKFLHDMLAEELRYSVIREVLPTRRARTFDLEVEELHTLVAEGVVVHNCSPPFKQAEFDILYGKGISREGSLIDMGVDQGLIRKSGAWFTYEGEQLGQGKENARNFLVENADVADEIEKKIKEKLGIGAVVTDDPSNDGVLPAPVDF
Kind of test: Fluorescence Cell-Free Homogeneous Dose Retest to Identify Inhibitors of RecA-Intein Splicing Activity. [Related pubchem assays (depositor defined):AID2097, AID2223, AID489010, AID492950]. Format: functional.

The target in the next test is Beta-galactosidase (Escherichia coli, UniProt Q8VNN2). In words: detection-enzyme interference by beta-gal modulators – biochemical, E. coli enzyme, set 3, artefact control for CCR6 antagonist project, dose response (AID 504712). Format: functional.
The target in test [6] is T4, Replicative DNA helicase DnaB (Mycobacterium tuberculosis, UniProt P9WMR3).
T4 sequence (P9WMR3 whole entry): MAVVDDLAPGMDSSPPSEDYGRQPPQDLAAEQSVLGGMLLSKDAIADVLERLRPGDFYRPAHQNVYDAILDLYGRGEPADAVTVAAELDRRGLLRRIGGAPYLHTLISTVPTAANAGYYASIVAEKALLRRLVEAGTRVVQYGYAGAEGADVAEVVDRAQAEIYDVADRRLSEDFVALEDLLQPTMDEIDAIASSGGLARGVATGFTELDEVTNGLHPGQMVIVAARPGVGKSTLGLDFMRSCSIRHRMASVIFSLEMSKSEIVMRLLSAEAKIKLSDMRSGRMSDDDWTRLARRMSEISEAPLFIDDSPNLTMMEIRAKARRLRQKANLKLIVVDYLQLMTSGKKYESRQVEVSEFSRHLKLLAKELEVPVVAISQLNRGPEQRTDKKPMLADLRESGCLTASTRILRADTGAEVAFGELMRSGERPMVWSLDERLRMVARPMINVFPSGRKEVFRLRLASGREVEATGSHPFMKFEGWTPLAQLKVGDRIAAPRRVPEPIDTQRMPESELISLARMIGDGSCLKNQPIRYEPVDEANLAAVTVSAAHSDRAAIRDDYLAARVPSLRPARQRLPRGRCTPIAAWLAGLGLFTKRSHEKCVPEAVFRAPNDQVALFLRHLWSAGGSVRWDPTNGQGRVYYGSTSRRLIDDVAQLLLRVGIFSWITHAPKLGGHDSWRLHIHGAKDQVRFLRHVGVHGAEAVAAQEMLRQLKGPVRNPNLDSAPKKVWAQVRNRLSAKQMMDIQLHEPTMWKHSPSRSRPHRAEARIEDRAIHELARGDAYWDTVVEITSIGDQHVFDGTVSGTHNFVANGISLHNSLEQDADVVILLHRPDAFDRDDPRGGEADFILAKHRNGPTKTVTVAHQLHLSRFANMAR
In words: DnaB intein splicing inhibitors, dose response, biochemical, cell-free fluorescence (AID 449749). Format: functional.

Activity calls are given as the source filed them.
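Wherever IC50 Mean is given: confirmatory dose-response retesting of NadD inhibitor hits first found in an ultra-high-throughput screen.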

T2 sequence (P65502 whole entry): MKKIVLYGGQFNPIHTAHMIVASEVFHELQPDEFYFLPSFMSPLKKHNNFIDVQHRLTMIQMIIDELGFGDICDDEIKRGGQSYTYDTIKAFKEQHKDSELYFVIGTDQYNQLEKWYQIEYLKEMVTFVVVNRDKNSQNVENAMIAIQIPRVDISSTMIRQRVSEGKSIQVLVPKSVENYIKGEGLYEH
Sequence of Beta-galactosidase (Q8VNN2 whole entry): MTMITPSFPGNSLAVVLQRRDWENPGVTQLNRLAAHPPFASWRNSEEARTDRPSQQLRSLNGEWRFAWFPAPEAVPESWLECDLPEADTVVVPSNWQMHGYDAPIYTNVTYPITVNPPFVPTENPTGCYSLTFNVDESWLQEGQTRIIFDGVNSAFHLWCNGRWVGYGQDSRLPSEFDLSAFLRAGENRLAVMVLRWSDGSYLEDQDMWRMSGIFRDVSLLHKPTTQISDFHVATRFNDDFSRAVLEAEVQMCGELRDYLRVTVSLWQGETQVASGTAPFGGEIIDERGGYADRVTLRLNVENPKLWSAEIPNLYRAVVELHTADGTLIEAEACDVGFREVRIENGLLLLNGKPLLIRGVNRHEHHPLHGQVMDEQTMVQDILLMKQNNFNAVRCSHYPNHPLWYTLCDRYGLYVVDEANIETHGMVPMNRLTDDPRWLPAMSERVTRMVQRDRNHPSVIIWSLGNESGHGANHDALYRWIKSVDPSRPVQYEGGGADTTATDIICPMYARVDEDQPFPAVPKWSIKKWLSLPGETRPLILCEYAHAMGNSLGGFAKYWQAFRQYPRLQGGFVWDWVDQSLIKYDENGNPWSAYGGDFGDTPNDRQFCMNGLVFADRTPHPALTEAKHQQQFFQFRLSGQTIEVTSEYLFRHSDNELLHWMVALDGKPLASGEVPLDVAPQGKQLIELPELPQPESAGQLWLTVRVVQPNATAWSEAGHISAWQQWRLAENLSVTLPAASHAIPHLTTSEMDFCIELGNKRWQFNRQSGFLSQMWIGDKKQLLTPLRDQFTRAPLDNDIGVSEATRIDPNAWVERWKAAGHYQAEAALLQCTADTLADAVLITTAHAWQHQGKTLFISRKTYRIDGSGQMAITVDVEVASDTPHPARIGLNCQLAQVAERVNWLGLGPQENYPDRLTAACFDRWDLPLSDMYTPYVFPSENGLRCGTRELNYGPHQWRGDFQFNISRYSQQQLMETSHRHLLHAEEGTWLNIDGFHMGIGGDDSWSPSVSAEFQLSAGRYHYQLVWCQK
Sequence of Caspase-7 (P55210 24-198 limits assumed): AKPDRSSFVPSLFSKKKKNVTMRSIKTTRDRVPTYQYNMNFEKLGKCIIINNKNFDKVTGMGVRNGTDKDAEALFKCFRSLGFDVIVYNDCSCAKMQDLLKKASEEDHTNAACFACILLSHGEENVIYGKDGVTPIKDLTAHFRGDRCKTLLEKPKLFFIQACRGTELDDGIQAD
Sequence of Caspase-7 (P55210 207-303 limits assumed): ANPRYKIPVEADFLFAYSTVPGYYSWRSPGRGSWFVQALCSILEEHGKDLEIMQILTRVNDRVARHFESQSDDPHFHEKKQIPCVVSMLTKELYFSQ

In general, EC50 refers to the concentration needed to bring the measured effect to its halfway point. For orientation: AC50 means the midpoint of the concentration-response curve, whichever way the signal moves. By CC50 is commonly meant the concentration giving 50% cytotoxicity. Consider `C=CCn1/c(=N/C(=O)c2cc(-c3cccs3)nc3ccccc23)sc2cc(S(N)(=O)=O)ccc21`, for which the EC50 at Caspase-7 is > 3.16 µM (active); at Caspase-3, 3.26 µM (active); in [2] it was 30.1 µM (active); in test [5], 25.3 µM (active). Besides, the AC50 with INS1 is 19.3 µM (active). Also, the CC50 in test [1] is 17.2 µM (active). Moreover, the values for the IC50 in [3] and in test [4] were 11.5 µM (active) and 21.6 µM (active), respectively.

As for `N#Cc1cc([N+](=O)[O-])c(-n2nnc3ccccc32)c([N+](=O)[O-])c1`, on Protein RecA, the EC50 is 25.9 µM (active). Moreover, the IC50 on Beta-galactosidase is > 66.6 µM (inactive). The AC50 in [6] is 7.31 µM (active).
